Reference: article PMC4383465 (European journal of pharmacology, 2014)
“And” between values parts separate entries of the source, which are not always exact repeats. Equal values may be shown once. Marks after values point to notes of the source that are not given here.

Experiments:
[1] = biological target: human cannabinoid type-2 receptors (Homo sapiens, UniProt P34972); format: binding; settings: for Selectivity CB1/CB2: CB1-Ki value divided CB2-Ki value
[2] = biological target: cannabinoid type-1 receptors endogenously expressed in Neuro2A cells (Mus musculus, UniProt P47746); experiment: Intracellular cAMP levels; format: cell-based; settings: for CB1R intrinsic activity: modulation of AC-activity compared to full agonist CP-55,940; for effect on intracellular cAMP compared to basal levels: 10 μM
[3] = biological target: human cannabinoid type-2 receptors stably expressed in CHO-hCB2 cells (Homo sapiens, UniProt P34972); experiment: Intracellular cAMP levels; format: cell-based; settings: for CB2R intrinsic activity: modulation of AC-activity compared to full agonist CP-55,940
[4] = after oral delivery, plasma; ref Al-Ghananeem et al., 2007; cited from earlier work
[5] = up to a dose of 120 mg/kg; ref Geng et al., 2009; cited from earlier work
[6] = biological target: cannabinoid type-1 receptors (Mus musculus, UniProt P47746); settings: read-out: [3H]CP binding Ki, ref Brents et al., 2011; cited from earlier work
Sequence of cannabinoid type-1 receptors (P47746 whole entry): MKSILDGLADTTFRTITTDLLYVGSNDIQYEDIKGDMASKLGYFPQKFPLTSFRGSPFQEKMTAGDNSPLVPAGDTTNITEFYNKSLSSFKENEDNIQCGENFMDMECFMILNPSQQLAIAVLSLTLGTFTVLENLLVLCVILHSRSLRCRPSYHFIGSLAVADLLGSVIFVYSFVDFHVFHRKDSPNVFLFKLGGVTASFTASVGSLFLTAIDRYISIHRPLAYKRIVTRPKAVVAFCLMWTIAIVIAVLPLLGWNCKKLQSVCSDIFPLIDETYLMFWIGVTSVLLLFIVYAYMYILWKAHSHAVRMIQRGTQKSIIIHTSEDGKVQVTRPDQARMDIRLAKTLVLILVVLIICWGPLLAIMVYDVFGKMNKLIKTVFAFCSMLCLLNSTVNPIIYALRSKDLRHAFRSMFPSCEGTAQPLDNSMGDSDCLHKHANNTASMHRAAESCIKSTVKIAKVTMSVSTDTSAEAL

Sequence of human cannabinoid type-2 receptors stably expressed in CHO-hCB2 cells (P34972 whole entry): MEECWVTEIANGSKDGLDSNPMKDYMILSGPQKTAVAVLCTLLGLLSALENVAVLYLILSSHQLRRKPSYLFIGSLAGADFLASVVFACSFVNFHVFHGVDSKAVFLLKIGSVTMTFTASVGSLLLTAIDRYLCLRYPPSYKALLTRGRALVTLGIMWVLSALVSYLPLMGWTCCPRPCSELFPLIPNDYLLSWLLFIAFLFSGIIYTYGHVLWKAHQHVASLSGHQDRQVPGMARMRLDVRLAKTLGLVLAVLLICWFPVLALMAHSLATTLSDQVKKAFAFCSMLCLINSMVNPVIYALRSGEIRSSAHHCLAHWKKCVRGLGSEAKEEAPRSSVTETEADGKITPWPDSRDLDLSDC
Sequence of human cannabinoid type-2 receptors (P34972 whole entry): as above
Sequence of cannabinoid type-1 receptors endogenously expressed in Neuro2A cells (P47746 whole entry): as the sequence (P47746 whole entry) above

| Compound | Selectivity CB1/CB2 [1] | CB1R intrinsic activity [2] | effect on intracellular cAMP compared to basal levels ([2]; screen, Neuro2A cells) | intrinsic activity from full concentration-effect curves ([3]; CHO-hCB2 cells) | Adenylyl Cyclase Inhibition Imax (% Inhibition) ([3]; concentration-effect curve, intact CHO-hCB2 cells, negative = increase in cAMP) | CB2R intrinsic activity [3] | selectivity for binding to cannabinoid type-2 relative to type-1 receptors [1] [fold] | AUC [4] [ng·kg·min/mL/mg] | average Cmax [4] | acute toxicity [5] | reduction in intracellular cAMP levels when administered alone ([2]; EC90 concentration (10 nM), Neuro2A cells) | Adenylyl Cyclase Inhibition Imax (% Inhibition) ([2]; concentration-effect curve, intact Neuro2A cells, 10 μM forskolin) | decrease in intracellular cAMP levels ([2]; screen, 1 μM, Neuro2A cells) | Ki [6] [nM] | increase in cAMP concentrations above basal levels ([3]; screen, 10 μM, CHO-hCB2 cells) |
| --- | --- | --- | --- | --- | --- | --- | --- | --- | --- | --- | --- | --- | --- | --- | --- |
| O=C1/C(=C/c2cn(Cc3ccc(Cl)cc3)c3ccccc23)N2CCC1CC2 [Compound 1] | 1.56 | Neutral Antagonist | did not significantly alter cAMP concentrations | full agonists | 63.0 ± 5.2^a,b % Inhibition | Agonist | – | – | – | – | – | – | – | – | – |
| OC1/C(=C/c2cn(Cc3ccccc3)c3ccccc23)N2CCC1CC2 (centres unmarked) [Compound 8, (Z)-2-((1-benzyl-1H-indol-3-yl)methylene)quinuclidin-3-ol] | – | Neutral Antagonist | did not significantly alter cAMP concentrations | – | – | Agonist | 10 | 3561 ± 670 | 1,710 ± 503 ng/ml | did not produce any acute toxicity | – | – | – | – | – |
| CCCCCCC(C)(C)c1ccc([C@@H]2C[C@H](O)CC[C@H]2CCCO)c(O)c1 [CP-55,940, reference compound] | – | Agonist | – | – | – | – | – | – | – | – | 45.7 +/− 3.7% | 42.4±3.8 % Inhibition and 42.4 ± 3.8^a % Inhibition | 64.1 +/− 1.6% | 0.26 ± 0.1 | – |
| COC(=O)c1ccc(Cn2cc(/C=C3/C(=O)C4CCN3CC4)c3ccccc32)cc1 [Compound 4] | 1.62 | Inverse Agonist | significant elevations in intracellular cAMP above basal levels | – | – | Inverse Agonist | – | – | – | – | – | – | – | – | 278 +/− 38.6% |
